# Measurements reported in PubChem BioAssay (NCI).
# “And” between values parts separate entries of the source, which are not always exact repeats. Equal values may be shown once.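 Following 48 hours of exposure in 96-well plates, responses at five concentrations were used to interpolate endpoints linearly. At the GI50, growth is halved. TGI marks complete inhibition of growth.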
# Tests used:
# Assay in all cases: NCI anticancer screen, dose series, 48 h
# MOLT-4 leukemia = tested on: MOLT-4 leukemia
# HT29 colon = tested on: HT29 colon
# 786-0 renal = tested on: 786-0 renal
# T-47D breast = tested on: T-47D breast
# MDA-N = tested on: MDA-N
# DU-145 prostate = tested on: DU-145 prostate
# OVCAR-5 ovarian = tested on: OVCAR-5 ovarian
# SK-MEL-28 melanoma = tested on: SK-MEL-28 melanoma
# IGROV1 ovarian = tested on: IGROV1 ovarian
# SK-MEL-2 melanoma = tested on: SK-MEL-2 melanoma
# A498 renal = tested on: A498 renal
Compound,TGI (MOLT-4 leukemia) [µM],TGI (HT29 colon),TGI (786-0 renal) [µM],TGI (T-47D breast) [µM],TGI (MDA-N) [µM],TGI (DU-145 prostate),TGI (OVCAR-5 ovarian) [µM],TGI (SK-MEL-28 melanoma),TGI (IGROV1 ovarian) [µM],TGI (SK-MEL-2 melanoma),TGI (A498 renal),GI50 (MOLT-4 leukemia) [µM],GI50 (HT29 colon) [µM],GI50 (DU-145 prostate) [µM],GI50 (OVCAR-5 ovarian) [µM],GI50 (SK-MEL-28 melanoma) [µM],GI50 (IGROV1 ovarian) [µM],GI50 (SK-MEL-2 melanoma) [µM],GI50 (A498 renal) [µM]
O=C1CC(c2cccc([N+](=O)[O-])c2)C2(C(=O)NC(=S)NC2=O)C(c2cccc([N+](=O)[O-])c2)C1 (stereo not given),> 100,> 100 µM,> 100,> 100,> 100,> 100 µM,> 100,> 100 µM,> 100,> 100 µM,> 100 µM,,,,,,,,
Clc1cc(Cl)nc(Nc2ccc3c(c2)CCC3)n1,69.6,51.5 µM,> 100,> 100,> 100,> 100 µM,> 100,> 100 µM,72.3,> 100 µM,> 100 µM,,,,,,,,
O=C1OC2(CCCCC2)C(Oc2ccc(Cl)cc2)=C1F,48.5,> 100 µM,> 100,> 100,> 100,> 100 µM,> 100,81.5 µM,> 100,61.8 µM,> 100 µM,,,,,,,,
CCOC(=O)c1cnc2n(c1=O)[C@H]1CCCC[C@@H]1N2,> 100,> 100 µM,> 100,> 100,> 100,> 100 µM,> 100,> 100 µM,> 100,> 100 µM,> 100 µM,,,,,,,,
CC(C)(C)OC(=O)NCC(c1c[nH]c2ccccc12)c1c[nH]c2ccccc12,29.9,29.8 µM,32,36.5,35.3,29 µM,31.4,35.3 µM,26.3,32.9 µM,> 100 µM,,,,,,,,
C(=Nc1ccc(-c2nc3ccccc3s2)cc1)c1cccs1,> 100,> 100 µM,> 100,> 100,> 100,> 100 µM,> 100,> 100 µM,> 100,> 100 µM,76.6 µM,,,,,,,,
C[C@H](CCc1nc(C#N)c(N)o1)[C@H]1CC[C@H]2[C@@H]3CCC4C[C@@H](O)CC[C@]4(C)[C@H]3C[C@@H](O)[C@]12C (stereo not given in full),20.2,27.7 µM,24,30.3,30.9,28 µM,35.1,26.6 µM,25.6,32.2 µM,36.6 µM,,,,,,,,
Cc1c2oc(=O)c(C#N)cc2c2ccccn12,> 100,> 100 µM,> 100,> 100,> 100,> 100 µM,> 100,> 100 µM,> 100,> 100 µM,> 100 µM,,,,,,,,
CC(C)=CC(=O)OC1C2C(C)=CC(=O)C(O)C2(C)C2C3(O)OCC24C(CC(=O)OC14)C(C)C3O (stereo not given),,0.0449 µM and 0.0146 µM and 0.137 µM,0.0834,0.0108,0.00481,0.0173 µM and 0.141 µM,,0.0175 µM and 0.0363 µM,,0.0723 µM and 0.0279 µM and 0.0695 µM,0.288 µM and 0.511 µM,0.02,0.0302,0.0225,0.113,0.02,0.02,0.025,0.142
Cc1oc(N)c(S(=O)(=O)/C(C#N)=C/c2ccccc2[N+](=O)[O-])c1C,62.5,35.1 µM,92.6,66.8,46.9,> 100 µM,39.2,64.2 µM,> 100,> 100 µM,> 100 µM,,,,,,,,
C=CCN1C(=O)C[C@H](Cc2ccccc2)NC(=O)C[C@H](Cc2ccccc2)N(CC=C)C(=O)C[C@H](Cc2ccccc2)NC(=O)C[C@@H]1Cc1ccccc1,6.91,> 100 µM,> 100,> 100,> 100,> 100 µM,> 100,> 100 µM,> 100,> 100 µM,> 100 µM,,,,,,,,
Cc1cccc(NC(=S)Nc2cccc(Cl)c2)n1,> 100,> 100 µM,> 100,> 100,> 100,> 100 µM,> 100,> 100 µM,> 100,> 100 µM,> 100 µM,,,,,,,,
COc1c(NC(C)=O)c2ccccc2c2ccccc12,> 100,> 100 µM,> 100,> 100,> 100,> 100 µM,> 100,> 100 µM,> 100,> 100 µM,> 100 µM,,,,,,,,
CCOP(=O)(OCC)C(c1ccccc1)N(C(=O)NC(F)(F)F)c1ccc(C)cc1 (stereo not given),> 100,> 100 µM,> 100,> 100,> 100,> 100 µM,> 100,> 100 µM,> 100,> 100 µM,> 100 µM,,,,,,,,
N#Cc1nc(CN2C(=O)c3ccccc3C2=O)oc1N,> 100,> 100 µM,> 100,> 100,> 100,> 100 µM,> 100,> 100 µM,> 100,> 100 µM,> 100 µM,,,,,,,,
C=CCCCN(C(=O)c1ccccc1)c1ccc(C(=O)OC)o1,> 100,> 100 µM,> 100,> 100,> 100,> 100 µM,> 100,,> 100,> 100 µM,> 100 µM,,,,,,,,
